Assay results from patent publication US10815226B2, “Heteroaryl compounds as inhibitors of necrosis, composition and application thereof” (ACCRO BIOSCIENCE INC., priority 2016, dated 2020).

These compounds were tested on HT29 cells (assay: HT29 cell necroptosis assay (TNF-α/Smac mimetic/z-VAD induced necrosis, viability)). Conditions: 10 μM test compound pretreated one hour, TNF-α (40 ng/mL), Smacmimetic (100 nM), z-VAD (20 μM) for 48 hours.
Type: cell-based, human
Procedure: Biological in Vitro HT29 Cell Assay.
The efficacies of RIP1 inhibitors were tested in vitro using human colon cancer TH29 cells in a necroptosis assay. For the assay, Cells were added to 96-well plates and then 10 μM of the test compound was pretreated for one hour. Then the cells were treated with TNF-α (40 ng/mL), Smacmimetic (100 nM) and z-VAD (20 μM) for 48 hours, and the viability was quantified. DMSO pretreatment group was negative control, Nec-1 pretreatment group was positive control.

Point of comparison: `Cc1ncc(-c2ccc3nc(NC(=O)CCCCCNC(=O)CCCCCNC(=O)CCCC[C@@H]4SC[C@@H]5NC(=O)N[C@@H]54)sc3c2)cc1NC(=O)Cc1ccccc1` [Compound A32], “HT29 Inhibition (10 μM)” value 21%. Against it:
- CC(=O)Nc1nc2ccc(-c3cnc(Cl)c(NC(=O)c4ccccn4)c3)cc2s1 [Compound A2] — lower, 8%
- CC(C)(C)OC(=O)NCCCNc1nc2ccc(-c3cnc(Cl)c(NC(=O)c4cccc(F)c4)c3)cc2s1 [Compound A6] — lower, 5%
- NCCCNc1nc2ccc(-c3cnc(Cl)c(NC(=O)c4cccc(F)c4)c3)cc2s1 [Compound A7] — lower, 8%
- CC(=O)Nc1nc2ccc(-c3cnc(CCCNC(=O)CCCCCNC(=O)CCCC[C@H]4SC[C@H]5NC(=O)N[C@H]54)c(NC(=O)c4cccc(F)c4)c3)cc2s1 [Compound A8] — lower, 10%
- O=C(CCCC[C@@H]1SC[C@@H]2NC(=O)N[C@@H]21)NCCCCCC(=O)NCCCNc1nc2ccc(-c3cnc(Cl)c(NC(=O)c4cccc(F)c4)c3)cc2s1 [Compound A9] — lower, 8%
- O=C(Nc1cc(-c2ccc3nncn3c2)cnc1Cl)c1cccc(F)c1 [Compound A10] — lower, 1%
- O=C(Nc1cc(-c2ccc3ncsc3c2)cnc1Cl)c1cccc(F)c1 [Compound A11] — lower, 8%
- CC(=O)Nc1nc2ccc(-c3cncc(NC(=O)Cc4cccc(F)c4)c3)cc2s1 [Compound A17] — higher, 45%
- CC(=O)Nc1nc2ccc(-c3cncc(NC(=O)Cc4ccccc4)n3)cc2s1 [Compound A33] — lower, 1%
- CC(=O)Nc1nc2ccc(-c3cncc(NC(=O)Cc4ccccc4Cl)n3)cc2s1 [Compound A34] — lower, 1%
- CC(=O)Nc1nc2ccc(-c3cccc(NC(=O)Cc4ccccc4Cl)n3)cc2s1 [Compound A35] — lower, 1%
- CC(=O)Nc1nc2ccc(-c3cnc(C)c(NC(=O)CN4CCOCC4)c3)cc2s1 [Compound A38] — higher, 33%
- CC(=O)Nc1nc2ccc(-c3cnc(C)c(NC(=O)CN4CCC(O)CC4)c3)cc2s1 [Compound A39] — lower, 9%
- CC(=O)Nc1nc2ccc(-c3cnc(C)c(NC(=O)CN4CCCC4)c3)cc2s1 [Compound A41] — lower, 14%
- CC(=O)Nc1nc2ccc(-c3cnc(C)c(NC(=O)CC4CC4)c3)cc2s1 [Compound A42, N-(5-(2-acetamidobenzo[d]thiazol-6-yl)-2-methylpyridin-3-yl)-2-cyclopropylacetamide] — higher, 22%
- CCOC(=O)Nc1cc(-c2ccc3nc(NC(C)=O)sc3c2)cnc1C [Compound A52] — lower, 10%
- CC(=O)Nc1nc2ncc(-c3cnc(C)c(NC(=O)OC4CCCCC4)c3)cc2s1 [Compound A63] — lower, 9%
- CC(=O)Nc1nc2ccc(-c3cnc(C)c(NC(=O)OCc4ccccc4)c3)cc2s1 [Compound A74] — lower, 8%
- CC(=O)Nc1nc2ccc(-c3ccnc(NC(=O)OC4CCCCC4)c3)cc2s1 [Compound A75] — lower, 6%
- CC(=O)Nc1nc2ccc(-c3cc(NC(=O)OC4CCCCC4)ncn3)cc2s1 [Compound A76] — lower, 5%
- CC(=O)Nc1nc2ccc(-c3cnc(C)c(NC(=O)OC4CCC5(CC4)OCCO5)c3)cc2s1 [Compound A77] — higher, 60%
- CC(=O)Nc1nc2ccc(-c3cnc(C)c(NC(=O)O[C@H]4CC[C@H](O)CC4)c3)cc2s1 [Compound A79] — higher, 35%
- CC(=O)Nc1nc2ccc(-c3cnc(C)c(NC(=O)Oc4ccccc4)c3)cc2s1 [Compound A82] — lower, 7%
- Cc1ncc(-c2ccc3nc(NS(C)(=O)=O)sc3c2)cc1NC(=O)OC1CCCCC1 [Compound A85] — lower, 7%
- Cc1ncc(-c2ccc3nc(NCC#N)sc3c2)cc1NC(=O)OC1CCCCC1 [Compound A91] — higher, 40%
- CC(=O)Nc1nc2ccc(-c3cnc(C)c(NC(=O)OC4COC4)c3)cc2s1 [Compound A93] — lower, 8%
- CC(=O)Nc1ncc2cc(-c3cnc(C)c(NC(=O)OC4CCCCC4)c3)ccc2n1 [Compound A96] — lower, 8%
- Cc1ncc(-c2ccc3[nH]c(=O)ccc3c2)cc1NC(=O)OC1CCCCC1 [Compound A97] — lower, 7%
- CC(=O)Nc1ncc2ccc(-c3cnc(C)c(NC(=O)OC4CCCCC4)c3)cc2n1 [Compound A98] — higher, 50%
- O=C(Cc1ccccc1)Nc1cc(-c2ccc3ncsc3c2)cnc1Cl [Compound A100] — lower, 9%
- Cc1ncc(-c2ccc3nc(N(C)C(=O)CCCCCNC(=O)OC(C)(C)C)sc3c2)cc1NC(=O)Cc1ccccc1 [Compound A101] — lower, 5%
- Cc1ncc(-c2ccc3nc(N(C)C(=O)CCCCCNC(=O)CCCCCNC(=O)CCCC[C@@H]4SC[C@@H]5NC(=O)N[C@@H]54)sc3c2)cc1NC(=O)Cc1ccccc1 [Compound A102] — lower, 5%
- CNc1nc2ccc(-c3cnc(C)c(NC(=O)OC4CCCCC4)c3)cc2s1 [Compound A103] — lower, 20%

These compounds were tested on HT29 cells in the same assay as above. Conditions: HT29 cells, TNF-α/Smacmimetic/z-VAD induced necrosis; values in nM.
Type: cell-based, human

Point of comparison: `CC(=O)Nc1nc2ccc(-c3cnc(F)c(NC(=O)OC4CCCCC4)c3)cc2s1` [Compound A90], IC50 300 nM. Against it:
- CC(=O)Nc1nc2ccc(-c3cnc(F)c(NC(=O)OC4CCCCC4)c3)cc2s1 [Compound A84] — 9.7-fold lower, 31 nM

Same assay, conditions: Homo sapiens, HT-29, HT29 cells, TNF-α/Smacmimetic/z-VAD induced necrosis; values given in μM

Point of comparison: `CC(=O)Nc1nc2ccc(-c3cnc(C)c(NC(=O)OC4CCCCC4)c3)cn2n1` [Compound A53], IC50 2190 nM. Against it:
- CC(=O)Nc1nc2cnc(-c3cnc(C)c(NC(=O)OC4CCCCC4)c3)cc2s1 [Compound A64] — 2.2-fold lower, 1000 nM

Same assay, conditions: Homo sapiens, HT-29, HT29 cells, TNF-α/Smacmimetic/z-VAD induced necrosis; values in nM

Point of comparison: `CC(=O)Nc1nc2ccc(-c3cnc(C)c(NC(=O)OC4CCC4)c3)cc2s1` [Compound A92], IC50 121 nM. Against it:
- CC(=O)Nc1nc2ccc(-c3cnc(C)c(NC(=O)OC4CCCC4)c3)cc2s1 [Compound A47] — within 1.5-fold, 124 nM
- CC(=O)Nc1nc2ccc(-c3cnc(C)c(NC(=O)OC(C)(C)C)c3)cc2s1 [Compound A48] — 4.1-fold higher, 500 nM
- CC(=O)Nc1nc2ccc(-c3cnc(C)c(NC(=O)NC4CCCCC4)c3)cc2s1 [Compound A49] — 3-fold higher, 357 nM
- CC(=O)Nc1cn2cc(-c3cnc(C)c(NC(=O)OC4CCCCC4)c3)ccc2n1 [Compound A50, Cyclohexyl (5-(2-acetamidoimidazo[1,2-a]pyridin-6-yl)-2-methylpyridin-3-yl)carbamate] — within 1.5-fold, 97 nM
- CC(=O)Nc1nc2ccc(-c3cc(NC(=O)OC4CCCCC4)c(C)cn3)cc2s1 [Compound A51] — 1.7-fold lower, 73 nM
- CC(=O)Nc1nc2ccc(-c3cnc(C)c(NC(=O)OC4CCOCC4)c3)cc2s1 [Compound A55] — 2.1-fold higher, 253 nM
- CC(=O)Nc1nc2ccc(-c3cnc(C)c(NC(=O)OC4CCC(F)(F)CC4)c3)cc2s1 [Compound A59] — 5.7-fold higher, 689 nM
- CCC(=O)Nc1nc2ccc(-c3cnc(C)c(NC(=O)OC4CCCCC4)c3)cc2s1 [Compound A60] — 2.3-fold lower, 53 nM
- CCOC(=O)Nc1nc2ccc(-c3cnc(C)c(NC(=O)OC4CCCCC4)c3)cc2s1 [Compound A62] — 1.9-fold lower, 63 nM
- CC(=O)Nc1cn2nc(-c3cnc(C)c(NC(=O)OC4CCCCC4)c3)ccc2n1 [Compound A65] — within 1.5-fold, 167 nM
- CC(=O)Nc1nc2ccc(-c3cc(NC(=O)OC4CCCCC4)c(C)nn3)cc2s1 [Compound A66, Cyclohexyl 6-(2-acetamidobenzo[d]thiazol-6-yl)-3-methylpyridazin-4-ylcarbamate] — 2-fold higher, 247 nM
- Cc1ncc(-c2ccc3nc(NC(=O)C4CC4)cn3n2)cc1NC(=O)OC1CCCCC1 [Compound A67] — 3.9-fold lower, 31 nM
- Cc1ncc(-c2ccc3nc(NC(=O)C4CC4)sc3c2)cc1NC(=O)OC1CCCOC1 (stereo not drawn) [Compound A68] — 3.9-fold lower, 31 nM
- COc1ncc(-c2ccc3nc(NC(C)=O)sc3c2)cc1NC(=O)OC1CCCCC1 [Compound A69] — within 1.5-fold, 107 nM
- Cc1ncc(-c2ccc3nc(N)sc3c2)cc1NC(=O)OC1CCCCC1 [Compound A70, Cyclohexyl (5-(2-aminobenzo[d]thiazol-6-yl)-2-methylpyridin-3-yl)carbamate] — within 1.5-fold, 93 nM
- Cc1ncc(-c2ccc3nc(NC(=O)C4CC4)sc3c2)cc1NC(=O)OC1CCOCC1 [Compound A71] — 10-fold lower, 12 nM
- CC(=O)Nc1nc2ccc(-c3cnc(C#N)c(NC(=O)OC4CCCCC4)c3)cc2s1 [Compound A72] — 4.4-fold higher, 534 nM
- CC(=O)Nc1nc2ccc(-c3cnc(C)c(NC(=O)OC(C)C)c3)cc2s1 [Compound A73] — 2.4-fold higher, 287 nM
- CC(=O)Nc1nc2ccc(-c3cnc(C)c(NC(=O)OC4CCC(=O)CC4)c3)cc2s1 [Compound A78] — 7.2-fold higher, 867 nM
- CC(=O)Nc1nc2ccc(-c3cnc(C)c(NC(=O)O[C@H]4CC[C@@H](O)CC4)c3)cc2s1 [Compound A80] — 5.4-fold higher, 653 nM
- Cc1ncc(-c2ccc3nc(NC(=O)C4CC4)cn3c2)cc1NC(=O)OC1CCCCC1 [Compound A81, Cyclohexyl (5-(2-(cyclopropanecarboxamido)imidazo[1,2-a]pyridin-6-yl)-2-methylpyridin-3-yl)carbamate] — 13-fold lower, 9 nM
- CC(=O)Nc1nc2ccc(-c3cnc(Cl)c(NC(=O)OC4CCCCC4)c3)cc2s1 [Compound A83] — 2.7-fold lower, 45 nM
- CCC(C)OC(=O)Nc1cc(-c2ccc3nc(NC(C)=O)sc3c2)cnc1C (stereo not drawn) [Compound A86] — within 1.5-fold, 87 nM
- CC(=O)Nc1nc2ccc(-c3cnc(C)c(NC(=O)OC4CCCCCC4)c3)cc2s1 [Compound A87] — 13-fold lower, 9 nM
- CC(=O)Nc1nc2ccc(-c3cnc(C)c(NC(=O)OC(C)C4CC4)c3)cc2s1 (stereo not drawn) [Compound A88] — 3-fold lower, 40 nM
- CCC(CC)OC(=O)Nc1cc(-c2ccc3nc(NC(C)=O)sc3c2)cnc1C [Compound A89] — 2.4-fold lower, 51 nM
- CNC(=O)Nc1nc2ccc(-c3cnc(C)c(NC(=O)OC4CCCCC4)c3)cc2s1 [Compound A94] — 12-fold lower, 10 nM
